{
  "source": "patent US20200338045A1",
  "about": "“ISOINDOLINE COMPOSITIONS AND METHODS FOR TREATING NEURODEGENERATIVE DISEASE” (priority 2017, published 2020)",
  "assay": "Phase 1 MAD safety (adverse events, laboratory, ECG)",
  "format": "in vivo, human",
  "method": "In Part B, healthy young subjects in each cohort received the same dose once daily for 14 days after overnight fasting. Cohort dosing started at 280 mg, followed by 560 mg and 840 mg in subsequent cohorts. In each cohort, eight subjects received drug and two received placebo. A fourth cohort of healthy elderly subjects (≥65 years old) received a 560 mg dose vs. placebo daily for 14 days (seven active, two placebo).\nSubjects were dosed in the morning with 240 mL of water after an 8-hour fast, and remained in a semi-reclined position for 1 hour and fasting for 2 hours post-administration, except for the fed cohort in Part A. Subjects in each MAD cohort were confined to the clinical facility from check-in on Day 0 until the pharmacokinetic sample was collected on Day 16, 48 hours after administration of the last dose on Day 14. Subjects returned to the clinical facility for follow-up visits on Days 24 and 35.\nSafety variables, including incidence of adverse events (AEs), vital signs, clinical laboratory findings, 12-lead electrocardiographs (ECGs), physical examination, and affective and cognitive measures (Part B only), were summarized for all subjects who received study drug.",
  "key": {"[1]": {"conditions": "MAD, 560 mg, Age ≤64 yrs (n = 8)"}, "[2]": {"conditions": "MAD, 560 mg, Age ≥65 years (n = 7)"}, "[3]": {"conditions": "MAD, 840 mg, Age ≤64 yrs (n = 8)"}},
  "data": [
    {"compound": "CC(C)(C)Oc1cc(CCC(C)(C)N2Cc3ccc(S(C)(=O)=O)cc3C2)ccc1O", "note": "[CT1812]", "values": [
      {"measurement": "Number of Subjects with at least one Treatment-Emergent AE: Dyspepsia", "setting": "[1]", "result": 1},
      {"measurement": "Number of Subjects with at least one Treatment-Emergent AE: Headache", "setting": "[1]", "result": 1},
      {"measurement": "Number of Subjects with at least one Treatment-Emergent AE: Procedural pain", "setting": "[1]", "result": 4},
      {"measurement": "Number of Subjects with at least one Treatment-Emergent AE: Upper respiratory tract infection", "setting": "[1]", "result": 1},
      {"measurement": "Subjects (%) with at least one Treatment-Emergent AE: All TEAEs", "setting": "[1]", "result": "(88%)"},
      {"measurement": "Subjects (%) with at least one Treatment-Emergent AE: Catheter site phlebitis", "setting": "[1]", "result": "(13%)"},
      {"measurement": "Subjects (%) with at least one Treatment-Emergent AE: Dyspepsia", "setting": "[1]", "result": "(13%)"},
      {"measurement": "Subjects (%) with at least one Treatment-Emergent AE: Headache", "setting": "[1]", "result": "(13%)"},
      {"measurement": "Subjects (%) with at least one Treatment-Emergent AE: Procedural pain", "setting": "[1]", "result": "(50%)"},
      {"measurement": "Subjects (%) with at least one Treatment-Emergent AE: Upper respiratory tract infection", "setting": "[1]", "result": "(13%)"},
      {"measurement": "Number of Subjects with at least one Treatment-Emergent AE: All TEAEs", "setting": "[2]", "result": 5},
      {"measurement": "Number of Subjects with at least one Treatment-Emergent AE: Back pain", "setting": "[2]", "result": 1},
      {"measurement": "Number of Subjects with at least one Treatment-Emergent AE: Dizziness", "setting": "[2]", "result": 1},
      {"measurement": "Number of Subjects with at least one Treatment-Emergent AE: Headache", "setting": "[2]", "result": 3},
      {"measurement": "Subjects (%) with at least one Treatment-Emergent AE: All TEAEs", "setting": "[2]", "result": "(71%)"},
      {"measurement": "Subjects (%) with at least one Treatment-Emergent AE: Back pain", "setting": "[2]", "result": "(14%)"},
      {"measurement": "Subjects (%) with at least one Treatment-Emergent AE: Dizziness", "setting": "[2]", "result": "(14%)"},
      {"measurement": "Subjects (%) with at least one Treatment-Emergent AE: Headache", "setting": "[2]", "result": "(43%)"},
      {"measurement": "Number of Subjects with at least one Treatment-Emergent AE: All TEAEs", "setting": "[3]", "result": 6},
      {"measurement": "Number of Subjects with at least one Treatment-Emergent AE: Back pain", "setting": "[3]", "result": 1},
      {"measurement": "Number of Subjects with at least one Treatment-Emergent AE: Catheter site phlebitis", "setting": "[3]", "result": 1},
      {"measurement": "Number of Subjects with at least one Treatment-Emergent AE: Dizziness", "setting": "[3]", "result": 1},
      {"measurement": "Number of Subjects with at least one Treatment-Emergent AE: Dyspepsia", "setting": "[3]", "result": 1},
      {"measurement": "Number of Subjects with at least one Treatment-Emergent AE: Headache", "setting": "[3]", "result": 4},
      {"measurement": "Number of Subjects with at least one Treatment-Emergent AE: Nausea", "setting": "[3]", "result": 1},
      {"measurement": "Number of Subjects with at least one Treatment-Emergent AE: Procedural pain", "setting": "[3]", "result": 2},
      {"measurement": "Number of Subjects with at least one Treatment-Emergent AE: Upper respiratory tract infection", "setting": "[3]", "result": 2},
      {"measurement": "Number of Subjects with at least one Treatment-Emergent AE: Vomiting", "setting": "[3]", "result": 2},
      {"measurement": "Subjects (%) with at least one Treatment-Emergent AE: All TEAEs", "setting": "[3]", "result": "(75%)"},
      {"measurement": "Subjects (%) with at least one Treatment-Emergent AE: Back pain", "setting": "[3]", "result": "(13%)"},
      {"measurement": "Subjects (%) with at least one Treatment-Emergent AE: Catheter site phlebitis", "setting": "[3]", "result": "(13%)"},
      {"measurement": "Subjects (%) with at least one Treatment-Emergent AE: Dizziness", "setting": "[3]", "result": "(13%)"},
      {"measurement": "Subjects (%) with at least one Treatment-Emergent AE: Dyspepsia", "setting": "[3]", "result": "(13%)"},
      {"measurement": "Subjects (%) with at least one Treatment-Emergent AE: Headache", "setting": "[3]", "result": "(50%)"},
      {"measurement": "Subjects (%) with at least one Treatment-Emergent AE: Nausea", "setting": "[3]", "result": "(13%)"},
      {"measurement": "Subjects (%) with at least one Treatment-Emergent AE: Procedural pain", "setting": "[3]", "result": "(25%)"},
      {"measurement": "Subjects (%) with at least one Treatment-Emergent AE: Upper respiratory tract infection", "setting": "[3]", "result": "(25%)"},
      {"measurement": "Subjects (%) with at least one Treatment-Emergent AE: Vomiting", "setting": "[3]", "result": "(25%)"},
      {"measurement": "Treatment-emergent AEs, % of subjects", "setting": "MAD, CT1812 (of 31 subjects)", "result": 81, "unit": "%"},
      {"measurement": "Treatment-emergent AEs, number of subjects", "setting": "MAD, CT1812 (of 31 subjects)", "result": 25},
      {"measurement": "Number of Subjects with at least one Treatment-Emergent AE: All TEAEs", "setting": "MAD, Total Active (n = 31)", "result": 25},
      {"measurement": "Number of Subjects with at least one Treatment-Emergent AE: Back pain", "setting": "MAD, Total Active (n = 31)", "result": 2},
      {"measurement": "Number of Subjects with at least one Treatment-Emergent AE: Catheter site phlebitis", "setting": "MAD, Total Active (n = 31)", "result": 2},
      {"measurement": "Number of Subjects with at least one Treatment-Emergent AE: Dizziness", "setting": "MAD, Total Active (n = 31)", "result": 3},
      {"measurement": "Number of Subjects with at least one Treatment-Emergent AE: Dyspepsia", "setting": "MAD, Total Active (n = 31)", "result": 3},
      {"measurement": "Number of Subjects with at least one Treatment-Emergent AE: Headache", "setting": "MAD, Total Active (n = 31)", "result": 10},
      {"measurement": "Number of Subjects with at least one Treatment-Emergent AE: Nausea", "setting": "MAD, Total Active (n = 31)", "result": 2},
      {"measurement": "Number of Subjects with at least one Treatment-Emergent AE: Procedural pain", "setting": "MAD, Total Active (n = 31)", "result": 6},
      {"measurement": "Number of Subjects with at least one Treatment-Emergent AE: Upper respiratory tract infection", "setting": "MAD, Total Active (n = 31)", "result": 8},
      {"measurement": "Number of Subjects with at least one Treatment-Emergent AE: Vomiting", "setting": "MAD, Total Active (n = 31)", "result": 2},
      {"measurement": "Subjects (%) with at least one Treatment-Emergent AE: All TEAEs", "setting": "MAD, Total Active (n = 31)", "result": "(%81)"},
      {"measurement": "Subjects (%) with at least one Treatment-Emergent AE: Back pain", "setting": "MAD, Total Active (n = 31)", "result": "(6%)"},
      {"measurement": "Subjects (%) with at least one Treatment-Emergent AE: Catheter site phlebitis", "setting": "MAD, Total Active (n = 31)", "result": "(6%)"},
      {"measurement": "Subjects (%) with at least one Treatment-Emergent AE: Dizziness", "setting": "MAD, Total Active (n = 31)", "result": "(10%)"},
      {"measurement": "Subjects (%) with at least one Treatment-Emergent AE: Dyspepsia", "setting": "MAD, Total Active (n = 31)", "result": "(10%)"},
      {"measurement": "Subjects (%) with at least one Treatment-Emergent AE: Headache", "setting": "MAD, Total Active (n = 31)", "result": "(32%)"},
      {"measurement": "Subjects (%) with at least one Treatment-Emergent AE: Nausea", "setting": "MAD, Total Active (n = 31)", "result": "(6%)"},
      {"measurement": "Subjects (%) with at least one Treatment-Emergent AE: Procedural pain", "setting": "MAD, Total Active (n = 31)", "result": "(19%)"},
      {"measurement": "Subjects (%) with at least one Treatment-Emergent AE: Upper respiratory tract infection", "setting": "MAD, Total Active (n = 31)", "result": "(26%)"},
      {"measurement": "Subjects (%) with at least one Treatment-Emergent AE: Vomiting", "setting": "MAD, Total Active (n = 31)", "result": "(6%)"},
      {"measurement": "rash", "setting": "MAD, improved after discontinuing CT1812", "result": "One subject developed a rash"},
      {"measurement": "increase in liver function tests", "setting": "four subjects in MAD study (including one on placebo)", "result": "below 3 × the upper limit of normal"}
    ]}
  ]
}
